Assay results published in US20160176924A1, “MODIFIED PEPTIDES AS POTENT INHIBITORS OF THE PSD-95/NMDA RECEPTOR INTERACTION” (priority 2008, published 2016).
Ends that are not written are not given here. Peptide text beside a SMILES is read from it.

Columns and labels:
[1] = Human blood plasma stability assay; type: in vitro ADME
Experimental: In this assay, the half-life (T1/2) of a compound in blood plasma is measured in vitro, whereby its susceptibility to degradation by proteases, peptidases and general plasma contents is quantified.
Compounds of interest were dissolved in human blood plasma (270 μl; 3H Biomedical, Sweden, cat no 1300-1-P50) to a concentration of 0.25 mM (30 μL of 2.5 mM) and incubated at 37° C. Aliquots (30 μl) were removed at various time intervals (0, 5, 10, 20, 40, 80, 160, 320, 960, 1280, 2550, 4560 and 7240 min) and quenched with 60 μL trichloroacetic acid (aq., 5%). The aliquots were vortexed, and incubated for at least 15 min, at 4° C. prior to centrifugation at 18,000 g for 2 min and the supernatant was analyzed by RP-HPLC to quantify the remaining compound (absorbance at 218 nm).

[2] = target: T1, PDZ2 of PSD-95 (Homo sapiens, UniProt P78352); assay: FP heterologous competition binding assay; conditions: for Ki: FP competition, mean ± SEM, NA = no activity/affinity
T1 construct: PDZ2 (residues 155-249); made in house; host or cells: E. coli BL21-DE3 pLysS
Excerpt: (§1) Determined IC50 values may be converted to Ki values.^5 Suitable fluorophores include either 5-FAM or Cy5, which may be coupled to a tripeptide (KSG or CSG) linker attached to the N-terminus of the undecapeptide, to give 5-FAM-NR2B, Cy5-NR2B, 5-FAM-CRIPT and Cy5-CRIPT. The 5-FAM fluorophore may be attached to the undecapeptides by coupling with HATU. The Cy5 fluorophore may be conjugated to the undecapeptides by coupling Cy5-maleimide to the cysteine side chain of the tripeptide sequence CSG attached to the N-terminus of the peptide, as detailed in the Methodology section.
(§2) To measure the affinities between non-fluorescent peptides and PDZ domains, heterologous competition bindings assay were performed. This was done by adding increasing concentrations of peptide to a fixed concentration of Cy5-NR2B, 5-FAM-NR2B, Cy5-CRIPT or 5-FAM-CRIPT (50 nM) and PDZ (20 μM for PDZ1, 3 μM for PDZ2 and 1-2 and 5 μM for PDZ3) in the same TBS buffer and conditions as described above. FP values were then fitted to the general equation: Y=Bottom+(Top−Bottom)/[1[…](10̂^X-logIC50)], where X is the logarithmic value of peptide concentration. Hereby the IC50 value was obtained, which is used to calculate the theoretical competitive inhibition constant, Ki.^5
(§3) A convenient and reliable way to examine interactions between peptide analogues and PDZ domains is by using a fluorescence polarization (FP) assay. The three PDZ domains, PDZ1-3, of PSD-95 were expressed individually as set out above, while PDZ1-2 was also expressed as a tandem construct. […] IC50 values were then converted to Ki values.^5

[3] = target: T2, PDZ1-2 tandem of PSD-95 (Homo sapiens, UniProt P78352); assay: FP heterologous competition binding assay; conditions: mean ± SEM
T2 construct: PDZ1-2 (residues 61-249) tandem; made in house; host or cells: E. coli BL21-DE3 pLysS
Excerpt: as §1, §2, §3

[4] = target: T3, PDZ1 of PSD-95 (Homo sapiens, UniProt P78352); assay: FP heterologous competition binding assay; conditions: for Ki: FP competition, mean ± SEM, NA = no activity/affinity
T3 construct: PSD-95 PDZ1 (residues 61-151); made in house; host or cells: E. coli BL21-DE3 pLysS
Excerpt: as §1, §2, §3

[5] = target: T4, PDZ3 of PSD-95 (Homo sapiens, UniProt P78352); assay: FP heterologous competition binding assay; conditions: for Ki: FP competition, mean ± SEM, NA = no activity/affinity
T4 construct: PDZ3 (residues 309-401); made in house; host or cells: E. coli BL21-DE3 pLysS
Excerpt: as §1, §2, §3

[6] = human, plasma, Blood plasma half life (T1/2)

CC[C@H](C)[C@H](NC(=O)CCOCCOCCOCCOCCOCCC(=O)N[C@H](C(=O)N[C@@H](C)C(=O)N[C@H](C(=O)N[C@@H](C)C(=O)N[C@H](C(=O)O)C(C)C)[C@@H](C)O)[C@@H](C)CC)C(=O)N[C@@H](C)C(=O)N[C@H](C(=O)N[C@@H](C)C(=O)N[C@H](C(=O)O)C(C)C)[C@@H](C)O [(IATAV)2PEG4 (88), (IATAV)2PEG4]
half-life at […] [1, 6]: 2.05 h
Ki [2]: 25 ± 0.88 µM
Ki [3]: 1.1 ± 0.07 µM

CC[C@H](C)[C@H](NC(=O)CCOCCOCCOCCOCCOCCC(=O)N[C@H](C(=O)N[C@@H](C)C(=O)N[C@H](C(=O)N(C)[C@@H](C)C(=O)N[C@H](C(=O)O)C(C)C)[C@@H](C)O)[C@@H](C)CC)C(=O)N[C@@H](C)C(=O)N[C@H](C(=O)N(C)[C@@H](C)C(=O)N[C@H](C(=O)O)C(C)C)[C@@H](C)O [(IATAMeV)2PEG4 (90), (IATAMeV)2PEG4]
degradation in human blood plasma, in words [1]: no significant degradation could be detected over a time period of 6 days
half-life [1, 6]: > 133 h

CC(C)[C@H](NC(=O)[C@H](C)NC(=O)[C@@H](N)[C@@H](C)O)C(=O)O [TAV (49), TAV] (H-Thr-Ala-Val-OH; N-terminus and C-terminus assumed)
fold increase in Ki (loss of affinity) compared to NR2B peptide (1), PDZ2 [2]: ~9 fold
Ki [2]: 37 µM
fold increase in Ki (loss of affinity) compared to NR2B peptide (1), PDZ1 [4]: ca. 2 fold
Ki [4]: 42 µM

CC(C)[C@H](NC(=O)[C@H](C)NC(=O)[C@@H](NC(=O)[C@H](CCC(=O)O)NCCCc1ccccc1)C(C)O)C(=O)O (stereo partly drawn) [Compound 60, N-Phenylpropyl-ETAV]
Ki [2]: 3.1 ± 0.31 µM
Ki [4]: 2.1 ± 0.35 µM

CC(C)[C@H](NC(=O)[C@H](CC(=O)O)NC(=O)[C@H](CO)NC(=O)[C@@H](N)CCC(=O)O)C(=O)O [ESDV (8), ESDV] (H-ESDV-OH; N-terminus and C-terminus assumed)
fold increase in Ki (loss of affinity) compared to NR2B peptide (1), PDZ2 [2]: 6.8 fold
Ki [2]: 28 ± 0.92 µM
fold increase in Ki (loss of affinity) compared to NR2B peptide (1), PDZ1 [4]: 3.1 fold
Ki [4]: 56 ± 2.4 µM
Ki [3]: 28 ± 2.9 µM

CC(C)[C@H](NC(=O)[C@H](C)NC(=O)[C@@H](NC(=O)[C@H](CCC(=O)O)NCCc1ccc(Cl)c(Cl)c1)C(C)O)C(=O)O (stereo partly drawn) [Compound 61]
Ki [2]: 1.1 ± 0.11 µM

KSGYEKLSSIESDV-OH [NR2B (1), reference compound]
affinity to PDZ3, in words ([5]; FP assay): no binding
Ki [2]: 4.1 ± 0.17 µM
Ki [4]: 18 ± 0.92 µM
Ki [3]: 7 ± 0.19 µM

CC(C)[C@H](NC(=O)[C@H](C)NC(=O)[C@@H](NC(=O)[C@H](CCC(N)=O)NCCC1CCCCC1)[C@@H](C)O)C(=O)O [QTAV (72)]
Ki [4]: 21 ± 1.1 µM

CC[C@H](C)[C@H](N)C(=O)N[C@@H](C)C(=O)N[C@H](C(=O)N(C)[C@@H](C)C(=O)N[C@H](C(=O)O)C(C)C)[C@@H](C)O [IATAMeV (89), IATAMeV]
half-life at […] [1, 6]: 0.533 h

CCCN[C@@H](CCC(=O)O)C(=O)N[C@H](C(=O)N[C@@H](C)C(=O)N[C@H](C(=O)O)C(C)C)[C@@H](C)O [Compound 53, N-Propyl-ETAV]
Ki [4]: 7 ± 0.28 µM

CC(C)[C@H](NC(=O)[C@H](C)NC(=O)[C@@H](NC(=O)[C@@H](N)CCC(=O)O)[C@@H](C)O)C(=O)O [ETAV (51), ETAV]
Ki [5]: 260 ± 20 µM
Ki [2]: 22 ± 0.92 µM
Ki [4]: 29 ± 1.6 µM

CC(C)[C@H](NC(=O)[C@H](C)NC(=O)[C@@H](NC(=O)[C@H](C)N)[C@@H](C)O)C(=O)O [ATAV (68), ATAV] (H-ATAV-OH; C-terminus assumed)
Ki [5]: ≥ 400 µM

SDV
fold increase in Ki (loss of affinity) compared to NR2B peptide (1), PDZ2 [2]: > 30 fold
fold increase in Ki (loss of affinity) compared to NR2B peptide (1), PDZ1 [4]: > 20 fold
